Measured values published in patent publication US20200102349A1, “PEPTIDE REAGENTS AND METHODS FOR DETECTION AND TARGETING OF DYSPLASIA, EARLY CANCER AND CANCER” (THE REGENTS OF THE UNIVERSITY OF MICHIGAN, priority 2014, published 2020).
Where no end group is shown, it is not given here.

How the values were obtained:
tumor xenograft = details: systemic administration; cited from earlier work
[1] = tested on: colonic dysplasia (flat lesions and polyps); assay: In vivo NIR fluorescence endoscopy of colon in CPC;Apc mouse; details: for mean (±SD) log of the T/B ratio: topical 100 μM, 5 min incubation
Experimental: For the in vivo fluorescence images of mouse colon, the T/B ratios for flat dysplasia and polyps were log-transformed to improve normality. The fold-change between classification pairs was estimated using the anti-log of the difference in the log-transformed data. Differences in results between the experimental and control peptides were evaluated on t-test. *P<0.05 was considered significant. Similar methods were used to evaluate the ex vivo fluorescence images of human colonic specimens. The results were plotted on a receiver-operator characteristic (ROC) curve. Co-localization of peptide and antibody binding was evaluated on Pearson's correlation coefficient. All analyses were performed using custom Matlab software (MathWorks Inc).
Mouse imaging studies were performed with approval of the University of Michigan Committee on the Use and Care of Animals (UCUCA). The mice were housed in pathogen-free conditions and supplied water ad libitum under controlled conditions of humidity (50±10%), light (12/12 hour light/dark cycle) and temperature (25° C.). Anesthesia was induced and maintained via a nose cone with inhaled isoflurane mixed with oxygen at a concentration of 2-4% at a flow rate of ˜0.5 L/min. The colon was first rinsed with tap water to remove mucous and debris. White light illumination was used first to identify anatomic landmarks, including polyps, mucosal folds, colonic segment, and distance of endoscope tip from anus, to register images with histology. The Cy5.5-labeled peptides were delivered at a concentration of 100 μM in a volume of 1.5 mL through the 3 Fr instrument channel. After 5 min for incubation, the colon was rinsed 3× with a tap water to remove the unbound peptides. After imaging was completed, the mice were euthanized. The colon was resected, and divided along the longitudinal axis. Flat lesions and polyps were identified on fluorescence, excised perpendicular to the mucosal surface, and processed for histology (H&E). We collected images from mice (n=5) that ranged in age from 7 to 10 months.
Imaging was performed using a small animal endoscope (Karl Storz Veterinary Endoscopy).^39 A xenon light source provides white light illumination via a fluid light cable. A diode-pumped solid state laser (TechnicaLaser Inc) provides excitation at λex=671 nm. The laser beam is expanded to a diameter of 3 mm to fill the aperture of the light cable. The laser power at the tip of the endoscope is <2 mW. The white light images reflect off a dichroic mirror (Semrock Inc, # FF685-Di02-25×36, λc=685 nm), and are focused by an achromatic doublet (Edmund Optics Inc, #32-323). They pass through a neutral density filter (OD 1), and are detected by a color camera (Point Grey Research, # GX-FW-28S5C-C). The fluorescence images pass through the dichroic and a band pass filter (Semrock Inc, # FF01-716/40-25, λC=716 nm, Δλ=40 nm), and are focused on a monochrome camera (Point Grey Research, # GX-FW-28S5M-C). All videos (1932×1452 resolution) are recorded at 15 frames per sec via a firewire connection.
White light and fluorescence videos were exported in avi format with 24 (RGB) and 8 (grayscale) bit digital resolution for the color and fluorescence images, respectively. […] Individual frames were exported using custom Matlab software. On the fluorescence images, 3 regions of interest (ROI, 25×25 pixels) were picked at random within the dysplastic lesion and within adjacent areas of normal-appearing mucosa. The mean intensities within these ROI's on the fluorescence images were measured. The target to-background (T/B) ratio for each image was determined by ratioing the mean intensities of these two ROIs.

EGFR [2] = molecular target: T1, EGFR (Homo sapiens, UniProt P00533); assay: siRNA knockdown of EGFR in HT29 cells, confocal fluorescence microscopy; type: cell-based; set-up: endogenous in cells; host or cells: HT29 human colorectal adenocarcinoma cells (ATCC)
Experimental: (§1) HT29, SW480, and SW620 cells (˜10^3) were grown on cover slips to ˜80% confluence. The cells were washed 1× with PBS and incubated with 5 μM of QRH*-Cy5.5 and PEH*-Cy5.5 for 3 min at RT. The cells were then washed 3× in PBS, fixed with 4% paraformaldehyde (PFA) for 5 min, washed 1× with PBS, and then mounted on glass slides with ProLong Gold reagent containing DAPI (Invitrogen). Confocal fluorescence images were collected with FITC, Cy5.5, and DAPI filters (Leica Inverted SPSX Confocal Microscope System) using a 63× oil-immersion objective. Fluorescence intensities from 5 cells in 2 independent images were quantified using custom Matlab (Mathworks) software.
We used siRNA to knockdown expression of EGFR in HT29 cells. We used ON-TARGETplus human EGFR siRNA and ON-TARGETplus non-targeting pool (Thermo Scientific) per manufacturer's protocol. 5 μL of siRNA at 5 μM/L concentration was transfected into HT29 cells using DharmaFECT (Thermo Scientific). QRH*-Cy5.5 and PEH*-Cy5.5 were incubated with HT29 siEGFR and siCL cells. The cells were fixed with either 4% PFA or methanol. A 1:1000 dilution of primary monoclonal mouse anti-EGFR antibody (Thermo Scientific, # MS-396, clone 199.12, IgG2a isotype) was incubated overnight at 4° C. Afterwards, the cells were washed 3× with PBS, and further incubated with 1:500 dilution of AF488-labeled secondary goat anti-mouse IgG antibody (Life Technologies, # A-11029) for 1 hour at RT, washed 3×, and then mounted on glass slides with ProLong Gold reagent containing DAPI (Invitrogen). Confocal fluorescence images were collected with FITC, Cy5.5, and DAPI filters using a 63× oil-immersion objective.
We validated specific binding of QRH*-Cy5.5 to EGFR on siRNA knockdown in HT29 cells. On confocal microscopy, QRH*-Cy5.5 (red), FIG. 2A, and AF488-labeled anti-EGFR (green), FIG. 2B, bind strongly to the surface (arrows) of control HT29 cells (transfected with siCL, non-targeting siRNA), scale bars 30 μm. […] The results (mean±std) for QRH*-Cy5.5, anti-EGFR AF488, and PEH*-Cy5.5 to control cells (siCL) were 7.8±1.7, 3.1±1.0, and 1.6±0.3 AU, respectively, and to EGFR knockdown cells (siEGFR) were 2.5±0.8, 1.0±0.4, and 1.9±0.7 AU, respectively, *P<0.01 by paired t-test, FIG. 2G. Results are an average of 10 cells from 2 images performed independently. EGFR expression is shown on Western blot, FIG. 12H.

SW480 cells = assay: Peptide binding to colorectal cancer cells on confocal microscopy (SW480); type: cell-based, human; details: SW480, 5 μM, 3 min
Experimental: as §1
(§2) We assessed binding of QRH*-Cy5.5 to a panel of colorectal cancer cells that vary in EGFR expression level on confocal microscopy. We observed binding of QRH*-Cy5.5 to the surface (arrows) of HT29, SW480, and SW620 cells with decreasing strength, FIG. 3A-C, scale bars 30 μm. […] Results are an average of 10 cells from 2 independent images. EGFR expression is shown on Western blot, FIG. 3H.

HT29 cells [3] = assay: Peptide binding to colorectal cancer cells on confocal microscopy (HT29); type: cell-based, human; details: HT29, 5 μM, 3 min
Experimental: as §1, §2

SW620 cells = assay: Peptide binding to colorectal cancer cells on confocal microscopy (SW620); type: cell-based, human; details: SW620, 5 μM, 3 min
Experimental: as §1, §2

HT29 cells [4] = assay: Competition for peptide binding with unlabeled peptide; type: cell-based, human; details: unlabeled peptide 0-500 μM, then 5 μM QRH*-Cy5.5, 4° C.
Experimental: Specific binding of QRH*-Cy5.5 to HT29 cells was validated on competitive inhibition with unlabeled QRH* peptide. A total of −10^3 HT29 cells were grown to −70% confluence on cover slips in triplicate. Unlabeled QRH* and PEH* peptide at 0, 50, 100, 150, 250, and 500 μM were added and incubated with the cells for 30 min at 4° C. The cells were washed and incubated with 5 μM of QRH*-Cy5.5 for another 30 min at 4° C. The cells were washed and fixed with 4% PFA for 5 min. The cells were washed with PBS and mounted with ProLong Gold reagent containing DAPI (Invitrogen). Fluorescence images were collected at each concentration using a 63× objective (Zeiss Axioskop 2 plus microscope), and intensities from 5 cells in 2 independent images were quantified using custom Matlab (Mathworks) software.

HT29 cells [5] = assay: Apparent dissociation constant on flow cytometry; type: binding, human; details: 4° C., 1 hour
Experimental: We measured the apparent dissociation constant of the peptide to HT29 cells as an assessment of binding affinity. QRH*-Cy5.5 was serially diluted in PBS at concentrations of 0, 10, 25, 50, 75, 100, 125, 150 and 200 nM. HT29 cells (˜10^5) were incubated with QRH*-Cy5.5 at 4° C. for 1 hour, washed with cold PBS, and the mean fluorescence intensities were measured on flow cytometry. The equilibrium dissociation constant kd=1/ka was calculated by performing a least squares fit of the data to the non-linear equation […]. I0 and Imax are the initial and maximum fluorescence intensities, corresponding to no peptide and at saturation, respectively, and [X] represents the concentration of the bound peptide [Thomas et al., Clin Exp Metastasis, 26:105-119 (2009)]. Origin 6.1 data analysis software (OriginLab Corp) was used to calculate kd.

HT29 cells [6] = assay: Apparent association time constant on flow cytometry; type: binding, human
Experimental: We measured the apparent association time constant of the peptide to HT29 cells as an assessment of binding onset. HT29 cells were grown to […] confluence in 10 cm dishes, and detached with PBS-based cell dissociation buffer (Invitrogen). Cells (˜10^5) were incubated with 5 μM QRH*-Cy5.5 at 4° C. for various time intervals ranging from 0 to 20 min. The cells were centrifuged, washed with cold PBS, and fixed with 4% PFA. Flow cytometry analysis was performed as described above, and the median fluorescence intensity (y) was ratioed with that of HT29 cells without addition of peptide at different time points (t) using Flowjo software. The rate constant k was calculated by fitting the data to a first order kinetics model, y(t)=Imax[1−exp^(−kt)], where Imax=maximum value,^60 using Prism 5.0 software (GraphPad Inc).

[7] = tested on: OE21 human esophageal SCC cells; assay: Binding of FITC-labeled peptide to esophageal SCC cells on confocal microscopy; type: cell-based
Experimental: We have further validated specific binding of the FITC-labeled peptide to EGFR on co-localization with anti-EGFR antibody. A total of ˜7.5×10^3 OE21 cells were grown to ˜70% confluence on cover slips and fixed with methanol for 5 min at ˜20° C. The cells were incubated for 2 hours at RT with 1:500 dilution of primary anti-EGFR mAb (199.12, Neomarkers). The cells were incubated with 1:500 dilution of secondary Cy5.5-labeled antibody for 1 hour at RT, and mounted with ProLong Gold with DAPI (Invitrogen). On confocal microscopy, we observe specific binding of Cy5.5-labeled anti-EGFR antibody (red) to the membrane (arrow) of OE21 cells, FIG. 8A. We then added the FITC-labeled peptide to the OE21 cells. After 10 min for incubation at 37° C., co-localization of the peptide (green) with the antibody (red) to the membrane (arrow) of OE21 cells can be observed, FIG. 8B.

EGFR [8] = molecular target: T1, EGFR; details: read-out: binding affinity; cited from earlier work

For CMYIEALDKYAC, the “time of peak accumulation / binding activity in tumor xenograft after injection” value (tumor xenograft) is listed as 8 h.

For LARLLT, the “time of peak accumulation / binding activity in tumor xenograft after injection” value (tumor xenograft) is given as roughly 80 h.

For “PEH*-Cy5.5: scrambled sequence PEHKRRQ (SEQ ID NO: 19) for control, Cy5.5-labeled (also: Cy5.5 label, site not given here) [reference compound]”, the “mean (±SD) log of the T/B ratio” value ([1]; flat lesions (n=15)) was 0.108±0.143, the “mean (±SD) log of the T/B ratio” value ([1]; polyps (n=15)) was 0.186±0.233 and the “NIR fluorescence signal from polyp and flat lesions in vivo” value ([1]; topical, distal colon, 5 min) was “minimal signal”. The “fluorescence intensity (mean±std)” value (EGFR [2]; EGFR knockdown HT29 cells (siEGFR)) was 1.9±0.7 AU, the “fluorescence intensity (mean±std)” value (EGFR [2]; control HT29 cells (siCL, non-targeting siRNA)) was 1.6±0.3 AU and the “fluorescence intensity of binding (mean±std)” value (SW480 cells) was 1.2±0.3. For the same substance, the “fluorescence intensity of binding (mean±std)” value (HT29 cells [3]) was 1.7±0.4 and the “fluorescence intensity of binding (mean±std)” value (SW620 cells) was 0.8±0.3.

In the case of “PEH*: unlabeled PEH* (control) (PEHKRRQGGGSK) [reference compound]”, the “change of fluorescence intensity of QRH*-Cy5.5 binding on addition of unlabeled peptide” value (HT29 cells [4]) is reported as “no change”.

With “QRH*: unlabeled QRH* peptide (QRHKPREGGGSK)” the “change of fluorescence intensity of QRH*-Cy5.5 binding on addition of unlabeled peptide” value (HT29 cells [4]) was “decrease in a concentration dependent manner”.

In the case of QRHKPRE, the Kd (HT29 cells [5]) is reported as 50 nM, the “binding time scale (onset)” value (HT29 cells [6]) is reported as less than 2.5 min and the “apparent association time constant k” value (HT29 cells [6]; 5 μM, 4° C., flow cytometry) is reported as 0.406 min⁻¹.

For “SHR*-FITC: FITC labeled SHRNRPRNTQPS (SHR*) (SEQ ID NO: 21) peptide (also: FITC label, site not given here)”, the “binding on confocal fluorescence microscopy” value [7] was “significantly increased fluorescence intensity” and the “co-localization with Cy5.5-labeled anti-EGFR antibody” value ([7]; 10 min, 37° C.) was “co-localization”.

In the case of YHWYGYTPQNVI, the Kd (EGFR [8]) is given as 22 nM and the “time of peak accumulation / binding activity in tumor xenograft after injection” value (tumor xenograft) is given as 4 h.
